# Experimental data taken from EP4653001A1, “TREATMENT, DIAGNOSIS AND/OR PROGNOSIS OF MITOCHONDRIAL DISEASES” (Universidad Autónoma de Madrid, priority 2024, dated 2025).
# What was measured:
# 143B cells = experiment: PPP activity measurement in 143B cells; format: cell-based; conditions: 24 h
# Description: The determination of pentose-phosphate pathway (PPP) activity was conducted by assessing the difference between 14CO2 production from 1-14C-glucose, which decarboxylates through the 6-phosphogluconate dehydrogenase-catalyzed reaction, and that of 6-^14C-glucose, which decarboxylates through the tricarboxylic acid cycle.
# Increased lactate secretion is considered a good indicator of enhanced glycolytic rates, which is a common feature of ETC-inhibited cells as they switch from OXPHOS to glycolysis to maintain ATP levels. […] We culture 143B cells in the presence of Piericidin for 24 h and PPP activity and lactate release, as a proxy of glycolysis, were measured. As expected, lactate detection in the media was higher in CI-inhibited cells. […] Next, we wonder if in this context, glucose can be overused by glycolysis and therefore diverted away from the PPP. Diseases associated with impaired mitochondrial function negatively impact high energy demanding tissues such as the brain. As such, neurons that are highly sensitive to ETC inhibition also rely strongly on glucose metabolism. Thus, we used mouse cortical neurons to determine the rates of glycolysis and PPP as glucose levels become limiting. Control and Piericidin treated neurons where cultured in media containing supraphysiological (25 mM), physiological (5 mM) or subphysiological concentrations of glucose (2,5 mM). […]
# 143B cell lines = experiment: Cell viability of CRISPR knock-out 143B cell lines treated with ETC inhibitors; format: cell-based
# Description: All cell lines, 143b, HeLa, U2OS, and transmitochondrial cybrids carrying mutation in CI (ND2), CIII (CytB) or CIV (Cox2) subunits, were maintained in DMEM high glucose (HyClone), 10% FBS and 1% P/S at 37°C with 5% CO2. Mitochondrial mutant cells were cultured with supplementation of 50 µg/mL uridine. The selected cancer cell lines with different levels of malic enzyme (HCC15, KYSE410, CAKI1, J82, MDAMB453, Colo320, NCIH1703) were obtained from the DSMZ-German Collection of Microorganisms and Cell Cultures GmbH and cultured in the same DMEM 10% FBS medium. OCI-Lys3 and RCH-ACV cell lines (cells in suspension), were obtained from the same repository and cultured in RPMI 10% FBS medium. Transfections for gain- and loss-of-function studies were performed according to the manufacturer's instructions using the polyfect reagent (Qiagen, 301107). For cell number and proliferation experiments, cells were seeded in 12 or 6-well plates and allowed to proliferate for the specified durations. Subsequently, cells were trypsinized and quantified using a hemocytometer (NanoEnTek, DHC-N01). Cell viability was quantified using propidium iodide (PI; 50 µg/ml) staining.
# Generation of knockout cell lines using CRISPR-Cas9 technology was performed with the lenti-CRISPR v2 vector (Addgene #52961). Guide sequences are: • sgGFPT1, 5-[…]-3 (SEQ ID NO: 1); • sgG6PD, 5-[…]-3 (SEQ ID NO: 2); • sgPHGDH, 5-[…]-3 (SEQ ID NO: 3); • sgMPC1, 5-[…]-3 (SEQ ID NO: 4) • sgPC, 5-CAGGCCCGGAACACACGGA-3 (SEQ ID NO: 5); • sgACLY, 5-[…]-3 (SEQ ID NO: 6); • sgME1, 5-[…]-3 (SEQ ID NO: 7).
# To investigate glucose-dependent alternative metabolic pathways that become essential upon ETC inhibition, we generated through CRISPR/Cas9 technology, knock-out (KO) 143B cell lines for each of the following rate-limiting enzymes and transporters. We selected glucose 6 phosphate dehydrogenase (G6PD) for the PPP, Glutamine-Fructose-6-Phosphate Transaminase 1 (GFPT1) for the hexosamine pathway, Phosphoglycerate Dehydrogenase (PHGDH) for the serine biosynthesis pathway and Mitochondrial Pyruvate Carrier 1 (MPC1) to prevent pyruvate entry into the mitochondria. These KO and Control cells were treated with two specific ETC inhibitors (Piericidin A that targets Complex I and Antimycin A that targets Complex III) and cell viability was assessed after 3 days of treatment. […] We took advantage of the fruit fly Drosophila melanogaster model, as it is cost- and time-efficient and recapitulate a wide range of phenotypes seen in patients with metabolic and mitochondrial disorders. We obtained flies carrying mutations in Zw and Pgd genes (named: Pgd^39 Zw^lo2a), corresponding to human orthologs G6PD and 6PGD respectively. […]
# cortical neurons = experiment: ATP measurement in live neurons (FRET ATP biosensor); format: cell-based, rats; conditions: soma or axons, 100 nM, 24 h
# Description: ATP measurements was performed in primary co-cultures of cortical neurons and astrocytes from P1-2 wild-type rats of the Sprague-Dawley strain Crl:CD(SD), which are bred by Charles River Laboratories following the international genetic standard protocol (IGS). All experiments were carried out in strict accordance with the guidelines of the European Directive 2010/63/EU and the French Decree n° 2013- 118 concerning the protection of animals used for scientific purposes. Neurons were plate on poly- ornithine (Sigma-Aldrich, P3655) coated coverslips and maintained in culture media composed by MEM (Thermo Fisher Scientific, 51200-046), 20 mM Glucose (Sigma-Aldrich, G8270), 0.1 mg/mL transferrin (Sigma-Aldrich, 616420), 1% Glutamax (Thermo Fisher Scientific, 35050-038), 24 µg/mL insulin (Sigma-Aldrich, I6634), 5% FBS (Thermo Fisher Scientific, 10082-147), 2% N-21 (Bio-techne, AR008) and 4µM cytosine β-d-arabinofuranoside (Sigma-Aldrich, C6645). Cultures were incubated at 37°C in 95% air / 5% CO 2 humidified incubator.
# Neurons were transfected at DIV 8 with ATeam1.03-nD/nA/pcDNA3 (gift from Takeharu Nagai (Addgene plasmid # 51958; http://n2t.net/addgene:51958; RRID:Addgene_51958)) and imaged at DIV 19. […] Fluorescence emission from ATeam was imaged using a FS 78 HE Dual camera; the exposure times were 250 ms for CFP and YFP images. […]
smiles,measurement,setting,value
"CC=C(C)C(O)C(C)C=C(C)C=CCC(C)=CCc1nc(OC)c(OC)c(O)c1C (stereo not shown) [Piericidin, Piericidin A]",PPP activity,143B cells,significant increase
same,cell viability,"143B cell lines; G6PD KO 143B cells, after 3 days of treatment",sensitive
same,survival or proliferation,"143B cell lines; KO cells for GFPT1, PHGDH or MPC1, after 3 days of treatment",no differences
same,ATP (genetically encoded biosensor),cortical neurons,did not altered
